Experiments:
ICrl:CD1 (ICR) mice = test: Mouse bioluminescence imaging evaluation (Test Example 1); format: in vivo; settings: Luc DNA-encapsulated lipid nanoparticles 10 mL/kg i.v. to ICR mice; IVIS total flux 15 minutes after luciferin i.p.
Protocol: The Luc DNA-encapsulated lipid nanopatricles obtained in the aforesaid Production Example were intravenously administered to the tails of ICrl:CD1 (ICR) mice (10 mL/kg i.v.). After administration of the lipid particles, luciferin (15 mg/mL) was administered to the mice (10 mL/kg i.p.), which were loaded in an IVIS (in vivo imaging system) apparatus (manufactured by PerkinElmer, Inc.) under isoflurane inhalation anesthesia. Luminescence images of the mice were taken ventrally (in a supine position) 15 minutes after luciferin administration. The luminescence was digitized with the software of IVIS, followed by evaluation using the value of total flux. Higher luminescence means strong expression of the protein encoded by the DNA encapsulate in the lipid particle. In Table 2, higher luminescence is indicated on a scale of A, B and C in order. A represents luminescence of 3.0E+07 or more, B represents luminescence of 1.0E+0.7 or more and less than 3.0E+07, and C represents luminescence of less than 1.0E+07.

[1] = Particle size of Luc DNA-encapsulated lipid nanoparticles; format: physicochemical; settings: cationic lipid:DPPC:cholesterol:GM-020=60:10.6:28:1.4 molar ratio
From the text: The particle size of the lipid particle (in the composition) can be measured by a known approach. For example, the particle size can be calculated as a Z-average particle size by the cumulant analysis of an autocorrelation function using a particle size measurement apparatus Zetasizer Nano ZS (Malvern Instruments) based on a dynamic light scattering measurement technique. The particle size (average particle size) of the lipid particle (in the composition) is, for example, 10 to 200 nm, preferably 60 to 170 nm.
(§1) A lipid mixture containing a cationic lipid of the Examples shown in Table 2 (cationic lipid:DPPC:cholesterol:GM-020=60:10.6:28:1.4, molar ratio) was dissolved in 90% of EtOH and 10% of water to obtain a 15.0 mg/ml lipid solution. Luciferase (luc) DNA (manufactured by Nature Technology Corp.) was dissolved in a 10 mM MES buffer solution (pH 5.5) to obtain a 0.3 mg/ml nucleic acid solution. The obtained lipid solution and nucleic acid solution were mixed at a flow rate ratio of 3 ml/min:6 ml/min at room temperature using NanoAssemblr (manufactured by Precision NanoSystems Inc.) to obtain a dispersion containing Luc DNA-encapsulated lipid nanoparticles. The obtained dispersion was dialyzed against water at room temperature for 1 hour and against PBS at 4° C. for 23 hours using Slyde-A-Lyzer (molecular weight cutoff: 20 K, Thermo Fischer Scientific Inc.). Subsequently, the dialysate was filtered through a 0.2 µm syringe filter (Iwaki). A 60% solution of sucrose in PBS was added thereto, and the mixture was preserved as a 20% solution of sucrose in PBS at −80° C. Analysis results of particle size and rate of encapsulation of the Luc DNA-encapsulated lipid nanoparticles are also shown in Table 2.

[2] = Rate of encapsulation of Luc DNA in lipid nanoparticles; format: physicochemical; parameters: unit: %; settings: Luc DNA-encapsulated lipid nanoparticles; cationic lipid:DPPC:cholesterol:GM-020=60:10.6:28:1.4 molar ratio
From the text: The concentration and rate of encapsulation of the nucleic acid (e.g., siRNA or mRNA) in the composition of the present invention can be measured by a known approach. For example, the nucleic acid is fluorescently labeled using Quant-iT™ RiboGreen® (Invitrogen Corp.), and the fluorescence intensity can be measured to determine the concentration and the rate of encapsulation. The concentration of the nucleic acid in the composition can be calculated using a calibration curve prepared from aqueous nucleic acid solutions having known concentrations. The rate of encapsulation can be calculated on the basis of the difference in fluorescence intensity between the presence and absence of addition of Triton-X 100 (surfactant for disrupting the lipid particle). The concentration of the nucleic acid in the composition refers to the total concentration of a nucleic acid encapsulated in the lipid particle and an unencapsulated nucleic acid. The rate of encapsulation refers to the ratio of the nucleic acid encapsulated in the lipid particle to all nucleic acids in the composition.
as §1

CCCCCCCCOC(=O)CCCCC(=O)OCC(COC(=O)CCCCC(=O)OCCCCCCCC)(COC(=O)CCCN(C)C)COC(=O)CC(CCCCC)CCCCC [Example 43, 1,1′-[2-({[4-(Dimethylamino)butanoyl]oxy}methyl)-2-{[(3-pentyloctanoyl)oxy]methyl}propane-1,3-diyl] 6,6′-dioctyl dihexanedioate]
Luminescence (ICrl:CD1 (ICR) mice): A (A represents luminescence of 3.0E+07 or more)
Particle size (nm) [1]: 126.7 nm
Rate of encapsulation [2]: 96.0

CCCCCCCCCOC(=O)CCCCC(=O)OCC(COC(=O)CCCCC(=O)OCCCCCCCCC)(COC(=O)CCCN(C)C)COC(=O)CC(CCCCC)CCCCC [Example 44, 1,1′-[2-({[4-(Dimethylamino)butanoyl]oxy}methyl)-2-{[(3-pentyloctanoyl)oxy]methyl}propane-1,3-diyl] 6,6′-dinonyl dihexanedioate]
Luminescence (ICrl:CD1 (ICR) mice): A (A represents luminescence of 3.0E+07 or more)
Particle size (nm) [1]: 132.3 nm
Rate of encapsulation [2]: 96.3

CCCCCCCCOC(=O)CCCCC(=O)OCC(COC(=O)CCCN(C)C)(COC(=O)CC(CCCCC)CCCCC)COC(=O)CC(CCCCC)CCCCC [Example 49, 2-({[4-(Dimethylamino)butanoyl]oxy}methyl)-3-[(3-pentyloctanoyl)oxy]-2-{[(3-pentyloctanoyl)oxy]methyl}propyl octyl hexanedioate]
Luminescence (ICrl:CD1 (ICR) mice): B (B represents luminescence of 1.0E+0.7 or more and less than 3.0E+07)
Particle size (nm) [1]: 112.8 nm
Rate of encapsulation [2]: 96.0

CCCCCCCCCOC(=O)CCCCC(=O)OCC(COC(=O)CCCN(C)C)(COC(=O)CC(CCCCC)CCCCC)COC(=O)CC(CCCCC)CCCCC [Example 50, 2-({[4-(Dimethylamino)butanoyl]oxy}methyl)-3-[(3-pentyloctanoyl)oxy]-2-{[(3-pentyloctanoyl)oxy]methyl}propyl nonyl hexanedioate]
Luminescence (ICrl:CD1 (ICR) mice): B (B represents luminescence of 1.0E+0.7 or more and less than 3.0E+07)
Particle size (nm) [1]: 86.5 nm
Rate of encapsulation [2]: 98.2

CCCCCOC(=O)CCCCCCCC(=O)OCC(COC(=O)CCCCCCCC(=O)OCCCCC)(COC(=O)CCCCCCCC(=O)OCCCCC)COC(=O)CCCN(C)C [Example 55, 1,1′-[2-({[4-(Dimethylamino)butanoyl]oxy}methyl)-2-({[9-oxo-9-(pentyloxy)nonanoyl]oxy}methyl)propane-1,3-diyl] 9,9′-dipentyl dinonanedioate]
Luminescence (ICrl:CD1 (ICR) mice): C (C represents luminescence of less than 1.0E+07)
Particle size (nm) [1]: 186.2 nm
Rate of encapsulation [2]: 79.7

CCCCCCCOC(=O)CCCCCCCC(=O)OCC(COC(=O)CCCCCCCC(=O)OCCCCCCC)(COC(=O)CCCN(C)C)COC(=O)CC(CCCCC)CCCCC [Example 60, 1,1′-[2-({[4-(Dimethylamino)butanoyl]oxy}methyl)-2-{[(3-pentyloctanoyl)oxy]methyl}propane-1,3-diyl] 9,9′-diheptyl dinonanedioate]
Luminescence (ICrl:CD1 (ICR) mice): A (A represents luminescence of 3.0E+07 or more)
Particle size (nm) [1]: 143.9 nm
Rate of encapsulation [2]: 77.6

CCCCCCOC(=O)CCCCCCCC(=O)OCC(COC(=O)CCCN(C)C)(COC(=O)CC(CCCCC)CCCCC)COC(=O)CC(CCCCC)CCCCC [Example 63, 2-({[4-(Dimethylamino)butanoyl]oxy}methyl)-3-[(3-pentyloctanoyl)oxy]-2-{[(3-pentyloctanoyl)oxy]methyl}propyl hexyl nonanedioate]
Luminescence (ICrl:CD1 (ICR) mice): C (C represents luminescence of less than 1.0E+07)
Particle size (nm) [1]: 90.9 nm
Rate of encapsulation [2]: 98.2

CCCCCCCCCCOC(=O)CC(=O)OCC(COC(=O)CCCN(C)C)(COC(=O)CC(=O)OCCCCCCCCCC)COC(=O)CC(CCCCC)CCCCC [Example 71, 1,1′-Didecyl 3,3′-[2-({[4-(dimethylamino)butanoyl]oxy}methyl)-2-{[(3-pentyloctanoyl)oxy]methyl}propane-1,3-diyl] dipropanedioate]
Luminescence (ICrl:CD1 (ICR) mice): A (A represents luminescence of 3.0E+07 or more)
Particle size (nm) [1]: 97.2 nm
Rate of encapsulation [2]: 92.6

Reference: patent US20250197343A1, “CATIONIC LIPID” (TAKEDA PHARMACEUTICAL COMPANY LIMITED, priority 2021, published 2025)
